Assay [1] deals with Malacoceros fuliginosus FaNaC1, wild type (Malacoceros fuliginosus).
Another assay deals with M. fuliginosus FaNaC1. Kind of assay: Two-electrode voltage clamp of oocytes expressing M. fuliginosus FaNaC1. Particulars: for peptide potency/activity compared to FMRFa (in words): Fig. 2 A. The format is cell-based, Malacoceros fuliginosus. From the text:
(§1) A. kurodai FaNaC (NCBI GenBank: AB206707.1) and M. fuliginosus FaNaC1 (NCBI GenBank: ON156825.1) cDNAs in tailored pSP64 plasmid vectors including Xenopus laevis UTRs and poly(A) sequences have been described at length previously ([9],[16]). A. kurodai FaNaC F188Y, F188tag (amber stop codon), F453Y, and F453tag mutants were generated by site-directed mutagenesis as detailed in ([17]) with custom primers (Merck) and PCR with Phusion High-Fidelity DNA polymerase (Thermo Fisher). All coding sequences were confirmed by Sanger sequencing (Genewiz). Plasmid DNA was linearized by digesting with EcoRI (Thermo Fisher) and purified with the DNA Clean & Concentrator Kit (Zymo). mRNA was then transcribed using the mMESSAGE mMACHINE SP6 Transcription Kit (Thermo Fisher) and purified with the RNeasy Mini Kit (Qiagen).
(§2) X. laevis frog oocytes were shipped from Ecocyte Bioscience, Germany, and stored at 18°C in 50% Leibovitz’s L-15 medium (Gibco) supplemented with additional 0.25 mg/mL gentamicin, 1 mM L-glutamine, and 15 mM HEPES, pH 7.6.
(§3) For wild-type (WT) and conventional mutant channels, oocytes were injected with 40 nL of 120 ng/μL FaNaC mRNA via glass micropipettes backfilled with mineral oil, using a Nanoliter2010 injector (World Precision Instruments). For the expression of noncanonical mutant channels, aminoacylated tRNA was first resuspended in 2 μL of water and deprotected by 5 min in UV light via a fan-cooled coil of 365-nm realUV LED strip lights (Waveform Lighting). Deprotected aminoacylated tRNA was then mixed 2:1 with 700 ng/μL UAG mutant FaNaC mRNA, and 40 nL of this mix was injected into oocytes.
(§4) Two-electrode voltage clamp experiments were performed 24–36 h after injection. The oocyte was placed in an RC-3Z bath (Warner Instruments) and perfused continuously with ND96 solution (NaCl 96 mM, KCl 2 mM, CaCl2 1.8 mM, MgCl2 1 mM, HEPES 5 mM, pH 7.5 with NaOH). In experiments without Ca^2+, CaCl2 was replaced with BaCl2, and oocytes were injected with 40 nL of water or 25 mM EGTA 10–45 min before recording. In experiments probing increased Ca^2+ concentrations, extracellular solutions contained NaCl 140 mM, HEPES 10 mM, CaCl2 1 mM, pH 7.5 with NaOH; or NMDG-Cl 126.5 mM, HEPES 10 mM, CaCl2 10 mM, pH 7.5 with NaOH (leaving a small amount of Na^+ in the final solution), based on previous work ([21]). ND96 (or the latter solutions) alone or containing peptides was rapidly exchanged via a VCS-8 pinch-valve control perfusion system (Warner Instruments). […] Oocytes were clamped at −80 mV for all experiments with an Oocyte Clamp OC-725D amplifier (Warner Instruments) and Axon Digidata 1550B digitizer ([…]). Data were recorded at 1000 Hz and filtered at 100–200 Hz. 50 Hz noise was eliminated with a Hum Bug (Digitimer). In measuring reversal potentials in normal and high Ca^2+ solutions, 150 ms voltage ramps from −80 mV to 80 mV were applied continuously, before and during FMRFa application. The resulting “current ramp” in the absence of FMRFa was subtracted from that during peak FMRFa-gated current to plot the FMRFa-induced current-voltage relationship.
(§5) Current amplitude was measured in Clampfit 11.1 (Molecular Devices), and subsequent data analyses were performed in Prism v9 (GraphPad Software). For peptide concentration-response data, peak current amplitude was normalized to maximum, plotted against peptide concentration, and fitted with four-parameter nonlinear regression (Prism v9) for each oocyte. These were averaged to give the reported means ± SE in the main text. For display in figures, a single fit to the average normalized responses (±SE) is shown. […] Therefore, in most M. fuliginosus/LMRFa experiments only, just two LMRFa applications were used: one test concentration and one 10 μM for normalization. This yielded n = 3 oocytes for responses to different concentrations, against which a single curve was fitted and half-maximal effective concentration (EC50) was calculated. […]
(In general: Two-electrode voltage clamp holds a large cell at a set potential and records current.)

Another assay deals with A. kurodai FaNaC. Kind of assay: Two-electrode voltage clamp of oocytes expressing A. kurodai FaNaC. The format is cell-based, Aplysia kurodai. Particulars: for peptide potency/activity compared to FMRFa (in words): Fig. 2 A.
Description: as §1, §2, §3, §4, §5

For the next assay, the system named is clade 1 FaNaCs. The settings on record: cited from earlier work; for sensitivity to native peptides (in words): extant clade 1 FaNaCs ref 9,27.
Assay [2] has as its system A. kurodai FaNaC F453hPhe. Kind of assay: Two-electrode voltage clamp, nonsense suppression mutant F453hPhe. It counts as cell-based, Aplysia kurodai.
Description: as §1
(§6) Noncanonical amino acids were incorporated into positions F188 and F453 of A. kurodai FaNaC via a nonsense suppression approach using an amber stop codon (TAG/UAG) and modified Tetrahymena thermophila Gln73 tRNA (THG73) ([19],[20]). […]
(§7) Two-electrode voltage clamp experiments were performed 24–36 h after injection. […] Data were recorded at 1000 Hz and filtered at 100–200 Hz. […]
(§8) Current amplitude was measured in Clampfit 11.1 (Molecular Devices), and subsequent data analyses were performed in Prism v9 (GraphPad Software). […]

Another assay has as its system Helix aspersa FaNaC. Details: method as in PMID 9343851. Particulars: stated as shared by A. kurodai FaNaC and H. aspersa FaNaC ref 27; cited from earlier work.
The test system of assay [3] is M. fuliginosus FaNaC1 F129 A/L/Q mutants. Details: method as in PMID 38337033. Particulars: conventional F129 A/L/Q mutants ref 15; cited from earlier work.
For another assay, the system named is A. kurodai FaNaC F188Y. Kind of assay: Two-electrode voltage clamp, conventional mutant F188Y. The format is cell-based, Aplysia kurodai.
Description: as §1, with “(Qiagen). […]” for “(Qiagen).”
as §7
(§9) Current amplitude was measured in Clampfit 11.1 (Molecular Devices), and subsequent data analyses were performed in Prism v9 (GraphPad Software). […] This yielded n = 3 oocytes for responses to different concentrations, against which a single curve was fitted and half-maximal effective concentration (EC50) was calculated. […]

For assay [4], the system named is A. kurodai FaNaC F188hPhe. Kind of assay: Two-electrode voltage clamp, nonsense suppression mutant F188hPhe. It counts as cell-based, Aplysia kurodai. Particulars: concentrations up to 100 μM.
Description: as §1, §6, §7, §8

For a further assay, the system named is A. kurodai FaNaC F453Cha. Kind of assay: Two-electrode voltage clamp, nonsense suppression mutant F453Cha. It counts as cell-based, Aplysia kurodai.
Description: as §1, §6, §7, §8

A further assay has as its system A. kurodai FaNaC F188Cha. Kind of assay: Two-electrode voltage clamp, nonsense suppression mutant F188Cha. The settings on record: concentrations up to 100 μM. The format is cell-based, Aplysia kurodai.
Description: as §1, §6, §7, §8

Another assay relates to clade 2 FaNaCs. The settings on record: extant clade 2 FaNaCs ref 9,23,27; cited from earlier work.
The test system of assay [5] is M. fuliginosus FaNaC1 position α3-F129 UAG mutant. Kind of assay: Two-electrode voltage clamp, nonsense suppression at F129 (UAG mutant mRNA and phenylalaninylated tRNA). The format is cell-based, Malacoceros fuliginosus. The settings on record: UAG mutant mRNA and phenylalaninylated tRNA (not shown).
A further assay relates to A. kurodai FaNaC F453Y. Kind of assay: Two-electrode voltage clamp, conventional mutant F453Y. It counts as cell-based, Aplysia kurodai.
Description: as §1, with “(Qiagen). […]” for “(Qiagen).”
as §7, §9

Another assay has as its system A. kurodai FaNaC F453Phe. Kind of assay: Two-electrode voltage clamp, nonsense suppression mutant F453Phe. The format is cell-based, Aplysia kurodai.
Description: as §1, §6, §7, §8

The subject of the next assay is A. kurodai FaNaC F188Phe. Kind of assay: Two-electrode voltage clamp, nonsense suppression mutant F188Phe. The format is cell-based, Aplysia kurodai.
Description: as §1, §6, §7, §8

Assay [6] has as its target Malacoceros fuliginosus FaNaC1, wild type (Malacoceros fuliginosus). The source holds these as a separate data set.
Assay [7] deals with Aplysia kurodai FMRFa-gated sodium channel (FaNaC), wild type (Aplysia kurodai).
[8] abbreviates: X. laevis oocytes, -80 mV, mean ± SE.

Several values for one entry are separate records, joined by “and”; a condition that tells them apart may be missing. Identical values can stand only once. Entries after “also recorded” stand apart in the source; their conditions may differ. Like-named read-outs stand apart in the source and are kept apart here. No end group written: not given here.

As for (F3-Phe)MRFa (peptide), in assay [1], the EC50 of current activation, two-electrode voltage clamp, X. laevis oocytes came out at 0.011 µM.

Turning to “AMRFa: synthetic FMRFa analog, F1 replaced with smaller hydrophobic side chain (A) (AMRF-NH2)”, the “peptide potency/activity compared to FMRFa (in words)” value in the assay with M. fuliginosus FaNaC1 (X. laevis oocytes) is “similarly to FMRFa”; with A. kurodai FaNaC (X. laevis oocytes) it was “activated no current”.

In the case of “Ac-FMRFa: FMRFa with N-terminal acetylation”, the results for the “peptide potency/activity compared to FMRFa (in words)” value in the assay on M. fuliginosus FaNaC1 (X. laevis oocytes) and in the assay with A. kurodai FaNaC (X. laevis oocytes) were “increased potency” and “little effect”, respectively.

For “FKRFa: FMRFa analog, M2 replaced with lysine (FKRF-NH2)”, the figures for the “peptide potency/activity compared to FMRFa (in words)” value with M. fuliginosus FaNaC1 (X. laevis oocytes) and in the assay on A. kurodai FaNaC (X. laevis oocytes) were “no significant effect on potency” and “no activity”, respectively.

Take “FMKFa: FMRFa analog, R3 replaced with lysine; also a native peptide (FMKF-NH2)”: in the assay with clade 1 FaNaCs, the “sensitivity to native peptides (in words)” value is “sensitive”. Moreover, the “activation by peptide (in words)” value in the assay on clade 1 FaNaCs (various mollusk FaNaCs ref 7,9) is listed as “activated”.

For the molecule “FMQFa: FMRFa analog, R3 replaced with glutamine (FMQF-NH2)”, the “currents at 100 μM peptide” value with A. kurodai FaNaC (100 μM) was “no currents”. For the same molecule, the “peptide potency/activity compared to FMRFa (in words)” value in the assay with A. kurodai FaNaC (X. laevis oocytes) is reported as “total reduction in potency”.

For the molecule “FMRAa: FMRFa analog, F4 replaced with alanine (FMRA-NH2)”, the “peptide potency/activity compared to FMRFa (in words)” value with M. fuliginosus FaNaC1 (X. laevis oocytes) is “abolished peptide potency completely”.

As to “FMRF-OMe: FMRF with C-terminal O-methylester”, the “peptide potency/activity compared to FMRFa (in words)” value in the assay on M. fuliginosus FaNaC1 (X. laevis oocytes) is on record as “drastically reduced activation”.

Turning to “FMRVa: FMRFa analog, F4 replaced with valine (FMRV-NH2)”, the “peptide potency/activity compared to FMRFa (in words)” value in the assay with M. fuliginosus FaNaC1 (X. laevis oocytes) was “did not significantly affect peptide potency”.

With “FVRFa: FMRFa analog, M2 replaced with valine (FVRF-NH2)”, the results for the “peptide potency/activity compared to FMRFa (in words)” value in the assay with M. fuliginosus FaNaC1 (X. laevis oocytes) and in the assay with A. kurodai FaNaC (X. laevis oocytes) were “no significant effect on potency” and “significantly less potent than FMRFa”, respectively.

What is called EC50 is the concentration needed to bring the measured effect to its halfway point. H-Phe-Met-Arg-Phe-NH2 [FMRFa]: the “FMRFa sensitivity (in words)” value in assay [2] is “relatively little effect on FMRFa sensitivity”; in the assay on A. kurodai FaNaC F453Cha it was “relatively little effect on FMRFa sensitivity”; in the assay on A. kurodai FaNaC F453Y, “abolished FMRFa sensitivity”. Also, the EC50 with Helix aspersa FaNaC is 3 to 5 µM; in the assay on M. fuliginosus FaNaC1 (setting [8]), 0.35 ± 0.06 µM; with A. kurodai FaNaC (setting [8]), 5.48 µM and 5.5 µM. Also, the “sensitivity to FMRFa (in words)” value in assay [3] was “reduced sensitivity to FMRFa”. In the assay with A. kurodai FaNaC F188Y, the “FMRFa activation (in words)” value was “activated by FMRFa at micromolar concentrations”. The “response to FMRFa (in words)” value (in assay [4]; with A. kurodai FaNaC F188Cha) was “little or no response” each time. In addition, the “sensitivity to native peptides (in words)” value with clade 1 FaNaCs is given as “sensitive”. The “binding of native peptides (in words)” value with clade 2 FaNaCs is given as “bind”. Besides, in assay [5], the “FMRFa-gated currents (in words)” value was “no FMRFa-gated currents”. In addition, the “FMRFa potency compared to regular WT (in words)” value with A. kurodai FaNaC F453Phe is “decreased FMRFa potency”. The “FMRFa activation/potency (in words)” value with A. kurodai FaNaC F188Phe is listed as “decreased FMRFa potency; also recorded: activated by FMRFa at micromolar concentrations”.

Regarding “LMRFa: synthetic FMRFa analog, F1 replaced with smaller hydrophobic side chain (L) (LMRF-NH2)”, the “deactivation after peptide application” value with M. fuliginosus FaNaC1 is “especially slow”. The “peptide potency/activity compared to FMRFa (in words)” value with M. fuliginosus FaNaC1 (X. laevis oocytes) is reported as “similarly to FMRFa”; in the assay on A. kurodai FaNaC (X. laevis oocytes) it was “activated no current”.

With “SGFMRFa: FMRFa with N-terminal serine-glycine insertion (SGFMRF-NH2)”, the “peptide potency/activity compared to FMRFa (in words)” value is given as “no effect” in the assay on M. fuliginosus FaNaC1 (X. laevis oocytes) and “abolished activity” in the assay with A. kurodai FaNaC (X. laevis oocytes).

Regarding H-FMRF-NH2 [H-Phe-Met-Arg-Phe-NH2 (FMRFamide)], the results for the EC50 of current activation, two-electrode voltage clamp, X. laevis oocytes in [6] and in assay [7] were 0.35 µM and 5.48 µM, respectively.

The values are drawn from PMC11993918, “Flipped binding modes for the same agonist in closely related neuropeptide-gated ion channels” (Biophysical Journal, 2025).
